Here are results for two compounds from patent publication US20170137481A1, “Use of Cell-Permeable Peptide Inhibitors of the JNK Signal Transduction Pathway for the Treatment of Various Diseases” (Xigen Inflammation Ltd., priority 2014, published 2017).

The subject of data set [1] is Endotoxin-Induced Uveitis in Lewis rats. The experiment in a line: Endotoxin-Induced Uveitis (EIU), action duration after subconjunctival administration. Format: in vivo, rat. From the text: The aim of this study was to evaluate the duration of action of SDD-1002 following sub-conjunctival administration in a rat model of EIU.
90 male Lewis rats were used, age approximately 6-8 weeks (at the induction), 4 weeks (at the injection for the Day-28), 5 weeks (at the injection for the Day-21), 6 weeks (at the injection for the Day-14, Day-7 and for the Day 0), 7 weeks (at the injection for Day-2 and Day-1), and housed by five in standard cages. Animals were allocated to the following groups: Group No. Treatment Dose Time-point
Thus, each animal received a single subconjunctival injection of either XG-102 (20 μg/eye), saline (0.9% NaCl) vehicle control or Solumedrol® (20 μg/eye) into each eye. Methylprednisolone (Solumedrol®) is most commonly used in uveitis as sub-conjunctival treatment.
On Day 0, ocular inflammation was induced by a single footpad injection of liposaccharide (LPS, 1 mg/kg, 0.5 mL/kg Sigma # L6511) on anesthetized animals. LPS powder was reconstituted the day of induction. XG-102 was administered by a single injection (20 microgram/5 microL) in each eye on Day-28 or Day-21 or Day-14 or Day-7 or Day-2 or Day-1 or Day 0 (immediately before induction). Saline control and reference item (Solumedrol®; 20 μg/eye) were administered by a single injection in each eye on Day 0 (immediately before induction).
Animals were examined with a slit-lamp before XG-102 administration (baseline) before induction (Day 0) then 24 h after induction (Day 1). The inflammation was graded using a scoring system as described by Devos A., Van Haren M., Verhagen C., Hoek Zema R., Kijlstra A: Systemic anti-tumor necrosis factor antibody treatment exacerbates Endotoxin Induced Uveitis in the rat. Exp. Eye. Res. 1995; 61: 667-675. Briefly, flare, miosis and hypopion were scored for absence (0), or presence (1), iris hyperemia and cells in the anterior chamber were scored for absence (0), or mild (1) or severe presence (2). The maximum score (sum of the five parameter scores) was 7.
At the end of the evaluation (24 h after induction), animals were euthanized by intravenous injection of overdosed pentobarbital. The aqueous humor was collected immediately for each eye. For quantification of Cellular Infiltration in Aqueous Humor (AH), the sample was diluted 10-fold with PBS before detection. The number of infiltrated cells was manually counted after Giemsa staining under microscope.

Data set [2] concerns light-induced photoreceptor cell death in Sprague-Dawley rats. The data set can be described thus: Photoreceptor light damage in albino rat (ERG, ONL thickness). Type of data set: in vivo. The method, then: The aim of this study was to investigate the dose effect of XG-102 on light-induced photoreceptor cell death.
Test item (XG-102: 30 mg/ml, 3 mg/ml, and 0.3 mg/ml) and vehicle (0.9% NaCl) were administered by intravitreal injection in right eyes the day before induction. The reference (Phenyl-N-test-Butylnitrone (PBN) (50 mg/kg)) and vehicle were intraperitoneally injected 30 min before induction then, 3 times during 12 hours of light exposition, then once after induction. Animals were placed in constant light (7000 lux) for 24 h. Electroretinograms (ERG) were recorded before light treatment and on days 9, 16 and 23 after induction. Eyes were then taken for histology and outer nuclear layer (ONL) thickness assessment. The table below summarizes the allocation of animals in treatment groups:
For the intravitreal injection animals were anesthetized by intramuscular injection of a mixture of xylazine/ketamine. Test item (5 μl) and vehicle (5 μl) were injected in the right eye. The injection was performed under an operating microscope in the supratemporal area at pars plana using a 33G-needle mounted on a 50 μl Hamilton. The filled syringe was mounted into the UltraMicroPump III to achieve accurate injection in microliter range. Reference and vehicle were injected intraperitoneally at a dose volume of 2.5 ml/kg using a 30G-needle mounted on a 1 ml-syringe.
Light Exposure: The rats that had been dark-adapted overnight were exposed for 24 hours to a continuous white fluorescent light (7000 lx) in clear plastic cages. Each cage contained one rat. After exposure, the rats returned to rearing cyclic light conditions.
The body weight of all animals was recorded before the start of the study then at the end of the study. Each day, the general behavior and the aspect of all animals were observed. ERG was recorded before induction and 7, 14 and 21 days after cessation of exposure (Days 9, 16 and 23) on right eyes of dark-adapted and anesthezied animals. The latency times (for a- and b-wave) and the a-wave and b-wave amplitudes were measured for each ERG; the latency times were expressed as millisecond and the a-wave and b-wave as a percentage of the baseline value obtained before light exposure. 15 min before measurement 10 μl Mydriaticum® (0.5% tropicamide) were instilled for pupillary dilatation.
ERG Parameters: • Color: white maximum. • Maximum intensity: 2.6 cd.s/m^2 (0 dB); Duration 0.24 ms; number of flash: 1. • Filter: 50 Hz. • Impedence Threshold: 90 kΩ.
Measurement of the ONL Thickness: After ERG testing, animal was euthanized by an overdose of pentobarbital and the right eyes were enucleated, fixed and embedded in paraffin. Sections (5 μm thick) were performed along the vertical meridian and stained with Trichrome-Masson. The vertical meridian included the optic nerve.
Group mean values and standard deviation were calculated. A statistical Mann and Whitney test was used to evaluate the differences between pair-wise groups. For comparison between time-point into each vehicle groups, a Friedman test was used.

The mark [3] stands for this setting: 20 μg/eye, both eyes treated on the day of induction, 24 h after LPS.
Setting [4] is: 20 μg/eye, both eyes treated on the day of induction, vs vehicle.

As for `C[C@H]1C[C@@H]2[C@H]([C@@H](O)C[C@@]3(C)[C@H]2CC[C@]3(O)C(=O)CO)[C@@]2(C)C=CC(=O)C=C12` [methylprednisolone, Methylprednisolone], in data set [1] (20 μg/eye on Day 0), the “clinical score, mean” value turned out to be 2.0±0.2; the “clinical score, median” value is recorded as 2; the “reduction of clinical score” value worked out at 50%. In data set [1] (setting [3]), the “EIU clinical score, Mean ± SEM (n = 20)” value is listed as 2.0 ± 0.2; the “EIU clinical score, Median” value is 2.0; the “Inflammatory cells infiltrated into aqueous humor, Mean ± SEM (n = 20)” value turned out to be 3170 ± 276 cells/μL; the “Inflammatory cells infiltrated into aqueous humor, Median” value was found to be 3385 cells/μL. Also, in data set [1] (setting [4]), the “Reduction of clinical scores” value amounted to 50% and the Reduction of leucocytes is 2%.

For the compound `CC(C)(C)[N+]([O-])=Cc1ccccc1` [PBN, Phenyl-N-tert-Butylnitrone, reference compound], in data set [2] (50 mg/kg i.p., Day 9), the “recovery of the a-wave (% of baseline)” value was 70.4% and the “recovery of the b-wave (% of baseline)” value is listed as 100%. In addition, in data set [2] (50 mg/kg i.p., Day 16), the “recovery of the a-wave (% of baseline)” value amounted to 79.6% and the “recovery of the b-wave (% of baseline)” value is listed as 103.6%. Further, in data set [2] (50 mg/kg i.p., Day 23), the “loss of mean ONL thickness versus untreated eyes” value was determined as 16%, the “recovery of the a-wave (% of baseline)” value came to 76.2% and the “recovery of the b-wave (% of baseline)” value was 102.4%. Besides, in data set [2] (rat, in vivo, ip, 50 mg/kg), the “ERG B-wave amplitude, percent of baseline, Mean ± SD” value is recorded as 100 ± 18.6%; the ONL thickness is 34.05 ± 4.00 μm; the “ONL thickness Loss (% comparison with control non-induced eye)” value was 16%.
